Data: publication PMC3748743 (Analytical chemistry, 2013)

Target: BoNT/A (Clostridium botulinum, UniProt P0DPI1)
Type: biochemical

Sequence of BoNT/A (P0DPI1 whole entry, looked up): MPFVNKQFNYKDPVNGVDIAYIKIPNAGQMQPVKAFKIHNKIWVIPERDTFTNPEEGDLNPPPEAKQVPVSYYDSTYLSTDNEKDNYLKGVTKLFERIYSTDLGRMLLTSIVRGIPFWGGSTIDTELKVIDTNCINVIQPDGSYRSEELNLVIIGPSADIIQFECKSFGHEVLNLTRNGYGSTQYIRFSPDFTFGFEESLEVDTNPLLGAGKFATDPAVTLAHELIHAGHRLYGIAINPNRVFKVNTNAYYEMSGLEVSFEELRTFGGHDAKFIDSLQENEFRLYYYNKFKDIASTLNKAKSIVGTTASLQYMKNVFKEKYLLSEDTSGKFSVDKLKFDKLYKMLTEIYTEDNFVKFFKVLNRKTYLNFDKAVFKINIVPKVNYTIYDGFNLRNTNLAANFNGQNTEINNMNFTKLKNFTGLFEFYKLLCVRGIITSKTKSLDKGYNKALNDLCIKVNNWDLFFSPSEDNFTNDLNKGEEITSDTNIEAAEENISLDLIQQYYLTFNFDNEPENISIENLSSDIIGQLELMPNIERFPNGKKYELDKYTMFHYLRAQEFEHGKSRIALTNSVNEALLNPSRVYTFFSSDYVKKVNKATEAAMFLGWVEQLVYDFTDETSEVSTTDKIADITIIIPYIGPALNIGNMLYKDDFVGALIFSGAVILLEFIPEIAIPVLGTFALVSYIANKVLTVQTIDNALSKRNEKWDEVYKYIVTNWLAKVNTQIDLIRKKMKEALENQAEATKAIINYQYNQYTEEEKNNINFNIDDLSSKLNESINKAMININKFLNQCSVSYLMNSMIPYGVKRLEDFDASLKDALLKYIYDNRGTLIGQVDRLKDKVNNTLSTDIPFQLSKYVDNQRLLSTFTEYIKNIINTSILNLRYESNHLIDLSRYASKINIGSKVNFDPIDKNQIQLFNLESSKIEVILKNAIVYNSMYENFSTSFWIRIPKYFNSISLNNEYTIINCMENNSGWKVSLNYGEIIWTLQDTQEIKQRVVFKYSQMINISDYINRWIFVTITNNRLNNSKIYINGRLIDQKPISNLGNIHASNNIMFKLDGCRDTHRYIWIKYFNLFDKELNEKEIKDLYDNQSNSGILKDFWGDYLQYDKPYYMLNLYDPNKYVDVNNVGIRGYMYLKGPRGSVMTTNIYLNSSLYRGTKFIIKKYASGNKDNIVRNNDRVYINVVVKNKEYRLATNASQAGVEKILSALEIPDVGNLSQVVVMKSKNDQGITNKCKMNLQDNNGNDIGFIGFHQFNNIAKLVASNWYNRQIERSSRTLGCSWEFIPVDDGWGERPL

TPEN
Effect on fluorescent signal of BoNT/A ALISSA: significant suppression of fluorescent signal
